Read-outs that look alike come from different tables or passages of the source.

In series [1] the test system is P. falciparum 3D7. The series can be described thus: Antiparasitic screening against P. falciparum 3D7. It is filed as cell-based. The settings on record: read-out: P. falciparum 3D7 EC50; mean ± standard error, 3 biological replicates.
For series [2], the system named is T. brucei. The series is described as follows: Antiparasitic screening against T. brucei. The series is classed as cell-based. The conditions noted are these: read-out: T. brucei EC50; mean ± standard error, 3 biological replicates.
Series [3] concerns L. amazonensis. The series is described as follows: Antiparasitic screening against L. amazonensis. The series is classed as cell-based. The conditions noted are these: read-out: L. amazonensis EC50; mean ± standard error, 3 biological replicates.
Series [4] concerns L. amazonensis. The conditions noted are these: read-out: L. amazonensis EC50; 6/5-spiroindimicins; ref 4b; cited from earlier work.
For series [5], the system named is T. brucei. The settings on record: read-out: EC50 (T. brucei); Phase III candidate for trypanosomiasis; cited from earlier work.
Series [6] in a line: Cytotoxicity against HepG2 cells. The conditions noted are these: human.

Consider `COC(=O)c1[nH]cc2c1[C@]1(CN(C)c3ccc(Cl)cc31)c1[nH]c3ccc(Cl)cc3c1-2` (racemic) [Compound 2, spiroindimicin B], for which the EC50 (as a rule, the concentration needed to bring the measured effect to its halfway point) in series [1] worked out at 3 ± 0.2 µM; in series [2] it was 3 ± 0.23 µM; in series [3], 8 ± 0.49 µM.
In the same order, the values of `COC(=O)c1[nH]cc2c1[C@]1(CNc3ccc(Cl)cc31)c1[nH]c3ccc(Cl)cc3c1-2` (racemic) [Compound 3, spiroindimicin C] are 7.1 ± 0.58 µM, 13 ± 0.98 µM and greater than 10 µM.
On to `COC(=O)c1[nH]c(C(=O)OC)c2c1-c1c([nH]c3ccc(Cl)cc13)[C@@]21CN(C)c2ccc(Cl)cc21` (racemic) [Compound 4, spiroindimicin D], for which the EC50 in series [1] is 5.6 ± 0.22 µM; in series [2] it was 3.4 ± 0.21 µM; in series [3], 7.7 ± 0.23 µM.
`COC(=O)c1[nH]cc2c1[C@@]1(CN(C)c3ccc(Cl)cc31)c1[nH]c3ccccc3c1-2` (racemic) [Compound 5, spiroindimicin E]: the EC50 in series [1] worked out at 4.8 ± 0.51 µM; in series [2] it was 4.4 ± 0.32 µM; in series [3], 9.3 ± 1.7 µM.
The corresponding values for `COC(=O)c1[nH]cc2c1[C@@]1(CN(C)c3ccccc31)c1[nH]c3ccc(Cl)cc3c1-2` (racemic) [Compound 6, spiroindimicin F] are 9 ± 0.97 µM, 4 ± 0.2 µM and 9.9 ± 1.2 µM.
Take `COC(=O)c1[nH]c(C(=O)OC)c2c1-c1c[nH]c3ccc(Cl)c(c13)[C@@]21C=Nc2ccc(Cl)cc21` [Compound 1, spiroindimicin A]: the EC50 in series [4] is 1.3 µM.
Regarding `CC1(C)OB(O)c2cc(NC(=O)c3ccc(F)cc3C(F)(F)F)ccc21` [acoziborole], the half-maximal effective concentration (EC50) in series [5] was 0.6 µM.
For `C[C@H]1CCC/C=C/[C@@H]2C[C@H](O)C[C@H]2[C@H](O)/C=C/C(=O)O1` [brefeldin A], it took 0.064 ± 0.0045 µM to reach half-maximal cytotoxicity in series [6] (CC50).
For the molecule N-PMB spiroindimicin C [Compound 74], the EC50 is 3.7 ± 0.35 µM in series [1], 1.2 ± 0.03 µM in series [2] and greater than 10 µM in series [3].
For the molecule spiroindimicin G [Compound 7], the results for the EC50 in series [1], in series [2] and in series [3] were 7.6 ± 0.47 µM, 0.65 ± 0.14 µM and 8.1 ± 0.5 µM, respectively.
